# From patent US20250018049A1, “COMPOUNDS FOR DEGRADING CYCLIN-DEPENDENT KINASE 2 VIA UBIQUITIN PROTEOSOME PATHWAY” (NIKANG THERAPEUTICS, INC., priority 2020, published 2025)
# Tests used:
# Format in all cases: cell-based
# CDK2 [1] = target: T1, CDK2 (Homo sapiens, UniProt P24941); experiment: NanoBRET CDK2 engagement assay; design: expressed in transfected cells; conditions: OVCAR3 cells with stable CDK2-Luciferase vector, 24 hours treatment
# Procedure, shortened: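 OVCAR3 cells stably expressing CDK2-luciferase, in Opti-MEM with 1% FBS, treated 24 h at 37° C with compound from 3 μM in ½-log steps to 0.3 nM; NanoBRET tracer present for final 2 h. Donor/acceptor emission read; engagement normalized to DMSO as 100% signal, IC50 by curve fit.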
# CDK2 [2] = target: T1, CDK2; experiment: Phospho-Rb HTRF measurement in OVCAR3 cells (inhibition of CDK2); design: High-Throughput Measurement of Cellular Endogenous CDK2; endogenous in cells; host or cells: OVCAR3; conditions: pRB(S807/811) assay, 24 h compound treatment
# CDK1 = target: T2, CDK1 (Homo sapiens, UniProt P06493); experiment: Phospho-Rb HTRF measurement in KYSE520 cells (inhibition of CDK1); conditions: CDK2-dependent OVCAR3 vs CDK2-independent but CDK1-dependent KYSE520 cell line
# T2 construct: endogenous in cells; host or cells: KYSE520
# T2 sequence (P06493 whole entry): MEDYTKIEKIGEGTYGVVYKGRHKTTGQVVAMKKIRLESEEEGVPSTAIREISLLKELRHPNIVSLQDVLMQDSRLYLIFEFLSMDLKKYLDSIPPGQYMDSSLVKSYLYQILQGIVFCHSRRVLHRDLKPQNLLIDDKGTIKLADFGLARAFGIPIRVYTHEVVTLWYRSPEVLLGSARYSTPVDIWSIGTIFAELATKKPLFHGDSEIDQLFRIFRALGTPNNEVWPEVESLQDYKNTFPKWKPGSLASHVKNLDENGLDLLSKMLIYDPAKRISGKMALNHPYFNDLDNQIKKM
# T2 sequence (P14635 whole entry partner): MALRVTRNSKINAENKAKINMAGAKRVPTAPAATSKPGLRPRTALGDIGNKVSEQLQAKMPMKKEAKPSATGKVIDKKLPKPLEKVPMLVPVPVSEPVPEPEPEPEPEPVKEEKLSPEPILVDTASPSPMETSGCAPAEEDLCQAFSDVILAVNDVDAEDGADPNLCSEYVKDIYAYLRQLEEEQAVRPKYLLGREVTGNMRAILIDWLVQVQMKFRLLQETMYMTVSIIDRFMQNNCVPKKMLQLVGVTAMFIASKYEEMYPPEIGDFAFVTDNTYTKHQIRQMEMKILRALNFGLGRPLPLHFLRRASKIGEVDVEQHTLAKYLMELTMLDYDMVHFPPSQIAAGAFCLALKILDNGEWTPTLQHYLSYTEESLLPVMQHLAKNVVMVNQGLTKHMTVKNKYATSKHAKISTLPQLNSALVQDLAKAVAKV
# Protocol: Phosphorylation of RB protein at S780 and S807/811 were measured using HTRF phospho-RB cellular kits (Cat #64RBS780PEG and 64RBS807PEG) from Cisbio.
# On Day 1, OVCAR3 or KYSE520 cells were seeded into 96-well tissue-culture treated plates at 20,000 cells/well in 200 μL and incubated overnight at 37° C. in CO2 atmosphere. On Day 2, the cells were treated with test compounds at concentrations from 0.3 to 10,000 nM using HP D300 digital dispenser. Twenty-four hours after compound treatment, cell culture media was removed by flicking the plate and tapping the plate against clean paper towel. Immediately 30 μL 1× lysis buffer was supplemented from the kit and the plate was incubated at room temperature on shaker for 30 min. After homogenization by pipetting up and down, 8 μL cell lysate from 96-well cell culture plate was transferred to 384-well small volume white detection plate. 2 μL premixed detection solution was added and the plate was covered with sealer. To prepare the detection solution, d2 conjugated-phospho-RB antibody and Eu-cryptate conjugated phosphor-RB antibody were diluted into detection buffer following manufacturer's instruction. Detection plates were incubated for 4 h at room temperature and read on ClarioStar (BMG Labtech) in TR-FRET mode (665 nM and 620 nM). The TR-FRET ratio (665 nM/620 nM) was plotted against the compound concentration and normalized to DMSO controls. Half maximal inhibition concentration (IC50) values are calculated with a four-parameter logistic fit using GraphPad Prism (version 8; La Jolla, CA).
# Compound 5 was not tested in the KYSE520 cell line.
# CDK2 [3] = target: T1, CDK2; experiment: CDK2 HTRF assay (cellular endogenous CDK2 level); design: High-Throughput Measurement of Cellular Endogenous CDK2; endogenous in cells; host or cells: OVCAR3; conditions: OVCAR-3; OVCAR3 cells, 24 hours, 0.3 to 10,000 nM; read-out: max degradation of CDK2
# Procedure, shortened: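 OVCAR3 cells treated 24 h with compounds at 0.3–10,000 nM, then lysed and total CDK2 measured by HTRF using d2- and Eu-cryptate-labelled CDK2 antibodies (TR-FRET 665/620 nm ratio). Signal normalized to DMSO controls; DC50 from four-parameter logistic fit.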
IC50 (CDK2 [1]) [nM],IC50 (CDK2 [2]) [nM],times more potent pRb inhibition in OVCAR3 than in KYSE520 (CDK1) [times],Dmax (CDK2 [3]) [%],Structure (SMILES)
1170,422,~11,–,"O=C1CCC(N2C(=O)c3cccc(NCCOCCOCCOCCNS(=O)(=O)N4CCC(Nc5ncc6ccc(=O)n(C7CCCC7)c6n5)CC4)c3C2=O)C(=O)N1 (centres unmarked) [Compound 21, 4-((8-cyclopentyl-7-oxo-7,8-dihydropyrido[2,3-d]pyrimidin-2-yl)amino)-N-(2-(2-(2-(2-((2-(2,6-dioxopiperidin-3-yl)-1,3-dioxoisoindolin-4-yl)amino)ethoxy)ethoxy)ethoxy)ethyl) piperidine-1-sulfonamide]"
176,52.9,~21,35 to 90,"O=C1CCC(N2Cc3cc(N4CC(N5CCC(Oc6cccc(S(=O)(=O)N7CCC(Nc8ncc9ccc(=O)n(C%10CCCC%10)c9n8)CC7)c6)CC5)C4)ccc3C2=O)C(=O)N1 (centres unmarked) [Compound 28, 3-(5-(3-(4-(3-((4-((8-cyclopentyl-7-oxo-7,8-dihydropyrido[2,3-d]pyrimidin-2-yl)amino)-piperidin-1-yl)sulfonyl)phenoxy)piperidin-1-yl)-azetidin-1-yl)-1-oxoisoindolin-2-yl)piperidine-2,6-dione]"
86,50.3,~10.5,35 to 90,"O=C1CCC(N2Cc3cc(N4CCC(CN5CCC(c6cccc(S(=O)(=O)N7CCC(Nc8ncc9ccc(=O)n(C%10CCCC%10)c9n8)CC7)c6)CC5)CC4)ccc3C2=O)C(=O)N1 (centres unmarked) [Compound 34, 3-(5-(4-((4-(3-((4-((8-cyclopentyl-7-oxo-7,8-dihydropyrido[2,3-d]pyrimidin-2-yl)amino)-piperidin-1-yl)sulfonyl)phenyl)piperidin-1-yl)-methyl)piperidin-1-yl)-1-oxoisoindolin-2-yl)-piperidine-2,6-dione]"
214,267,~20.5,–,"Cn1c(=O)n(C2CCC(=O)NC2=O)c2cccc(CNCCOc3cccc(S(=O)(=O)N4CCC(Nc5ncc6ccc(=O)n(C7CCCC7)c6n5)CC4)c3)c21 (centres unmarked) [Compound 41, 3-(4-(((2-(3-((4-((8-cyclopentyl-7-oxo-7,8-dihydropyrido[2,3-d]pyrimidin-2-yl)amino)-piperidin-1-yl)sulfonyl)phenoxy)ethyl)amino)-methyl)-3-methyl-2-oxo-2,3-dihydro-1H-benzo[d]imidazol-1-yl)piperidine-2,6-dione]"
